The structures appear in SMILES notation. pIC50: −log10 of the molar value.

In patent US8962608B2, “Cycloalkylnitrile pyrazole carboxamides as janus kinase inhibitors” (Merck Sharp & Dohme Corp., priority 2011, dated 2015) one finds IC50 data, which are given here for 24 compounds.

Assay [1] concerns the target JAK1 (recombinant purified GST-tagged catalytic domain) (Homo sapiens (Human), UniProt P23458). The experiment in a line: biochemical.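 Further: biochemical assay with HTRF read-out.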
Assay [2] has as its target JAK2 (recombinant purified GST-tagged catalytic domain) (Homo sapiens (Human), UniProt O60674). The experiment in a line: biochemical.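 Further: biochemical JAK kinase assay with HTRF detection.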

JAK1 (recombinant purified GST-tagged catalytic domain), sequence (P23458 875-1153): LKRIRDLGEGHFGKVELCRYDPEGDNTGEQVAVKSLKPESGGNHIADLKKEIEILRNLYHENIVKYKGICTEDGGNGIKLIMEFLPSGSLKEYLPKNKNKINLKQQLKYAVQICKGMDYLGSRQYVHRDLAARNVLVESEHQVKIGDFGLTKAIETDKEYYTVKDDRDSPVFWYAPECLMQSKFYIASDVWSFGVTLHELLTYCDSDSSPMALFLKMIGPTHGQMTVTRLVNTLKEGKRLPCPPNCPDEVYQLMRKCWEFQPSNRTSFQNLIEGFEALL
JAK2 (recombinant purified GST-tagged catalytic domain), sequence (O60674 849-1124): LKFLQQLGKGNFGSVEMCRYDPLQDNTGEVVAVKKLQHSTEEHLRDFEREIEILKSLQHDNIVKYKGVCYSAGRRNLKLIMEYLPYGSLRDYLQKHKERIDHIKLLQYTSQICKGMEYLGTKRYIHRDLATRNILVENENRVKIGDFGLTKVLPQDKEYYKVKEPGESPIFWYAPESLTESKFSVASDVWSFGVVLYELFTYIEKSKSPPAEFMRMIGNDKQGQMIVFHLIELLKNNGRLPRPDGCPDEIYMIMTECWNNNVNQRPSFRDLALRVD

On to `CC1(C)CN([C@H]2CC[C@H](n3cc(C(N)=O)c(Nc4ccccc4)n3)[C@@H](C#N)C2)C1` (single isomer, unassigned) [Example 28-138, 1-[(1S,2S,4S or 1R,2R,4R)-2-cyano-4-(3,3-dimethylazetidin-1-yl)cyclohexyl]-3-(phenylamino)-1H-pyrazole-4-carboxamide], for which the pIC50 in assay [1] is 9.05; in assay [2], 7.40.

Consider `N#Cc1ccc(Nc2nn([C@H]3CC[C@H](O)C[C@@H]3C#N)cc2C(N)=O)cc1` (single isomer, unassigned) [Example 33-6, 1-[(1S,2S,4S or 1R,2R,4R)-2-cyano-4-hydroxycyclohexyl]-3-[(4-cyanophenyl)amino]-1H-pyrazole-4-carboxamide], for which the values for the pIC50 in assay [1] and in assay [2] were 9.30 and 8.52, respectively.

With `CC(C)(O)[C@H]1CC[C@H](n2cc(C(N)=O)c(Nc3ccc(Cl)cc3)n2)[C@@H](C#N)C1` (single isomer, unassigned) [Example 36-1, 3-(4-chlorophenylamino)-1-((1S,2S,4S or 1R,2R,4R)-2-cyano-4-(2-hydroxypropan-2-yl)cyclohexyl)-1H-pyrazole-4-carboxamide], the pIC50 in assay [1] was 9.19; in assay [2], 8.40.

Turning to `N#C[C@H]1CCCC[C@@H]1n1cc(C(N)=O)c(Nc2ccc(S(=O)(=O)NCc3ccccc3)cc2)n1` (single isomer, unassigned) [Example 17-83, 3-{[4-(benzylsulfamoyl)phenyl]amino}-1-[(1R,2R or 1S,2S)-2-cyanocyclohexyl]-1H-pyrazole-4-carboxamide], the negative logarithm of the IC50 (pIC50) was 9.70 in assay [1] and 9.05 in assay [2].

With `N#C[C@H]1C[C@@H](NCC2(O)CC2)CC[C@@H]1n1cc(C(N)=O)c(Nc2ccc(C(F)(F)F)cc2)n1` (single isomer, unassigned) [Example 28-23, 1-[(1S,2S,4S or 1R,2R,4R)-2-cyano-4-{[(1-hydroxycyclo-propyl)methyl]amino}cyclo-hexyl]-3-{[4-(trifluoromethyl)phenyl]amino}-1H-pyrazole-4-carboxamide], the pIC50 in assay [1] is 9.35; in assay [2], 7.64.

On to `CC(C)(O)C1CN([C@@H]2CC[C@H](n3cc(C(N)=O)c(Nc4ccc(C(F)(F)F)cc4)n3)[C@@H](C#N)C2)C1` (single isomer, unassigned) [Example 28-7, 1-{(1S,2S,4R or 1R,2R,4S)-2-cyano-4-[3-(1-hydroxy-1-methylethyl)azetidin-1-yl]cyclohexyl}-3-{[4-(trifluoro-methyl)phenyl]amino}-1H-pyrazole-4-carboxamide], for which the pIC50 in assay [1] was 9.40; in assay [2] it was 7.31.

For `CC(C)(O)C1CN(C(=O)[C@H]2CC[C@H](n3cc(C(N)=O)c(Nc4ccc(Cl)cc4)n3)[C@@H](C#N)C2)C1` (single isomer, unassigned) [Example 35-9, 3-[(4-chlorophenyl)amino]-1-[(1S,2S,4S or 1R,2R,4R)-2-cyano-4-{[3-(1-hydroxy-1-methylethyl)azetidin-1-yl]carbonyl}cyclohexyl}-1H-pyrazole-4-carboxamide], the pIC50 was 7.52 in assay [1] and 6.50 in assay [2].

Take `N#C[C@H]1C[C@@H](NCC2CC2)CC[C@@H]1n1cc(C(N)=O)c(Nc2ccc(C(F)(F)F)cc2)n1` (single isomer, unassigned) [Example 28-10, 1-{(1S,2S,4S or 1R,2R,4R)-2-cyano-4-[(cyclopropyl-methyl)amino]cyclohexyl}-3-{[4-(trifluoromethyl)phenyl]amino}-1H-pyrazole-4-carboxamide]: the figures for the pIC50 in assay [1] and in assay [2] were 8.52 and 7.19, respectively.

Consider `CC(=O)c1ccc(Nc2nn([C@H]3CC[C@@H](N4CCC4)C[C@@H]3C#N)cc2C(N)=O)cc1` (single isomer, unassigned) [Example 28-83, 3-[(4-acetylphenyl)amino]-1-[(1S,2S,4R or 1R,2R,4S)-4-azetidin-1-yl-2-cyanocyclohexyl]-1H-pyrazole-4-carboxamide], for which the pIC50 was 9.40 in assay [1] and 7.74 in assay [2].

With `N#C[C@H]1CC(NCC(F)F)CC[C@@H]1n1cc(C(N)=O)c(Nc2ccc(S(=O)(=O)C(F)F)cc2)n1` (single isomer, unassigned) [Example 28-122, 1-{(1S,2S or 1R,2R)-2-cyano-4-[(2,2-difluoroethyl)amino]cyclohexyl}-3-({4-[(difluoro-methyl)sulfonyl]phenyl}amino)-1H-pyrazole-4-carboxamide], the pIC50 in assay [1] was 9.05; in assay [2], 8.22.

Take `CCNC(=O)O[C@@H]1CCC(n2cc(C(N)=O)c(Nc3ccc(F)cc3)n2)[C@@H](C#N)C1` (mixture of isomers) [Example 34-7, (1R,3S,4S and 1S,3R,4R)-4-{4-carbamoyl-3-[(4-fluorophenyl)aminol-1H-pyrazol-1-yl}-3-cyanocyclohexyl ethylcarbamate]: the pIC50 is 9.07 in assay [1] and 8.05 in assay [2].

With `N#C[C@H]1C[C@H](N2CC3(CCC3)C2)CC[C@@H]1n1cc(C(N)=O)c(Nc2ccnc(F)c2)n1` (single isomer, unassigned) [Example 28-143, 1-[(1S,2S,4R or 1R,2R,4S)-4-(2-azaspiro[3.3]hept-2-yl)-2-cyanocyclohexyl]-3-[(2-fluoropyridin-4-yl)amino]-1H-pyrazole-4-carboxamide], the pIC50 was 9.00 in assay [1] and 6.91 in assay [2].

On to `CN(C)[C@@H]1CC[C@H](n2cc(C(N)=O)c(Nc3ccnc(F)c3)n2)[C@@H](C#N)C1` (single isomer, unassigned) [Example 28-127, 1-[(1S,2S,4R or 1R,2R,4S)-2-cyano-4-(dimethylamino)cyclohexyl]-3-[(2-fluoropyridin-4-yl)amino]-1H-pyrazole-4-carboxamide], for which the pIC50 was 7.92 in assay [1] and 6.60 in assay [2].

For the compound `N#C[C@H]1CCCC[C@@H]1n1cc(C(N)=O)c(Nc2ccc(S(=O)(=O)Nc3ccc4cccnc4c3)cc2)n1` (single isomer, unassigned) [Example 17-94, 1-[(1R,2R or 1S,2S)-2-cyanocyclohexyl]-3-{[4-(quinolin-7-ylsulfamoyl)phenyl]amino}-1H-pyrazole-4-carboxamide], the pIC50 in assay [2] was 7.48.

With `N#C[C@H]1C[C@@H](N2CCC2)CC[C@@H]1n1cc(C(N)=O)c(Nc2ccc([C@@H](O)C(F)(F)F)cc2)n1` (single isomer, unassigned) [Example 28-87, 1-[(1S,2S,4S or 1R,2R,4R)-4-azetidin-1-yl-2-cyanocyclohexyl]-3-({4-[(1R or 1S)-2,2,2-trifluoro-1-hydroxyethyl]phenyl}amino)-1H-pyrazole-4-carboxamide], the pIC50 in assay [2] was 7.89.

For `CN(CC(F)(F)F)[C@H]1CCC(n2cc(C(N)=O)c(Nc3ccnc(F)c3)n2)[C@@H](C#N)C1` (single isomer, unassigned) [Example 28-233, 1-{(1S,2S,4S or 1R,2R,4R)-2-cyano-4-[methyl(2,2,2-trifluoroethyl)amino]cyclo-hexyl}-3-[(2-fluoropyridin-4-yl)amino]-1 H-pyrazole-4-carboxamide], the pIC50 in assay [2] is 8.22.

For `N#C[C@H]1CCCC[C@@H]1n1cc(C(N)=O)c(Nc2cccnc2)n1` (racemic) [Example 17-13, 1-[(1S,2S and 1R,2R)-2-cyanocyclohexyl]-3-(pyridin-3-ylamino)-1H-pyrazole-4-carboxamide], in assay [2], the pIC50 is 7.44.

Regarding `N#C[C@H]1C[C@@H](N2CC3(CCC3)C2)CC[C@@H]1n1cc(C(N)=O)c(Nc2ccccc2)n1` (single isomer, unassigned) [Example 28-136, 1-[(1S,2S,4S or 1R,2R,4R)-4-(2-azaspiro[3.3]hept-2-yl)-2-cyanocyclohexyl]-3-(phenylamino)-1H-pyrazole-4-carboxamide], the pIC50 in assay [2] is 7.21.

For the compound `CC1(CN[C@H]2CCC(n3cc(C(N)=O)c(Nc4ccc(Cl)cc4)n3)[C@@H](C#N)C2)COC1` (single isomer, unassigned) [Example 28-217, 3-[(4-chlorophenyl)amino]-1-[(1S,2S,4S or 1R,2R,4R)-2-cyano-4-{[(3-methyloxetan-3-yl)methyl]amino}cyclohexyl]-1H-pyrazole-4-carboxamide], the pIC50 in assay [2] was 7.33.

As to `CC(N[C@@H]1CC[C@H](n2cc(C(N)=O)c(Nc3ccc(S(=O)(=O)C(F)(F)F)cc3)n2)[C@@H](C#N)C1)C1CC1` (single isomer, unassigned) [Example 28-177, 1-[(1S,2S,4R or 1R,2R,4S)-2-cyano-4-{[(1S)-1-cyclopropylethyl]amino}cyclo-hexyl]-3-({4-[(trifluoromethyl)sulfonyl]phen-yl]amino)-1H-pyrazole-4-carboxamide], the pIC50 in assay [2] was 7.37.

On to `N#C[C@H]1CC(NC2CC2)CCC1n1cc(C(N)=O)c(Nc2ccc(S(=O)(=O)C(F)(F)F)cc2)n1` (mixture of isomers) [Example 27-10, 1-[(1S,2S and 1R,2R)-2-cyano-4-(cyclopropylamino)cyclohexyl]-3-({4-[(trifluoromethyl)sulfonyl]phenyl}amino)-1H-pyrazole-4-carboxamide], for which the pIC50 in assay [2] was 8.15.

As to `N#C[C@@H]1C[C@H](C(=O)NC2CCC2)CC[C@H]1n1cc(C(N)=O)c(Nc2ccc(Cl)cc2)n1` (single isomer, unassigned) [Example 35-11, 3-[(4-chlorophenyl)amino]-1-[(1R,2R,4R or 1S,2S,4S)-2-cyano-4-(cyclobutylcarbamoyl)cyclohexyl]-1H-pyrazole-4-carboxamide], in assay [2], the pIC50 was 7.11.

For `CC1(C)CN([C@H]2CC[C@H](n3cc(C(N)=O)c(Nc4ccc(C(F)(F)F)cc4)n3)[C@@H](C#N)C2)C1` (single isomer, unassigned) [Example 28-202, 1-[(1S,2S,4S or 1R,2R,4R)-2-cyano-4-(3,3-dimethylazetidin-1-yl)cyclohexyl]-3-{[4-(trifluoromethyl)phenyl]amino}-1H-pyrazole-4-carboxamide], the pIC50 in assay [2] is 7.41.

With `CN(C)[C@H]1CC[C@H](n2cc(C(N)=O)c(Nc3ccc(C(F)(F)F)cc3)n2)[C@@H](C#N)C1` (single isomer, unassigned) [Example 28-188, 1-[(1S,2S,4S or 1R,2R,4R)-2-cyano-4-(dimethylamino)cyclohexyl]-3-{[4-(trifluoromethyl)phenyl]amino}-1H-pyrazole-4-carboxamide], in assay [2], the pIC50 is 7.85.

The term pIC50 denotes −log10 of the IC50, conventionally taken in molar units.
